Test systems include DU-145 prostate; HS 578T breast; HT29 colon; MDA-MB-435; NCI/ADR-RES ovarian; OVCAR-8 ovarian; SN12C renal; UACC-257 melanoma; UO-31 renal; OVCAR-4 ovarian.
Holding throughout (test): DTP human tumour cell line panel, 48 h

Broadly, the GI50 is the concentration that inhibits growth by half. For orientation: TGI means the concentration at which net growth stops.

Several values for one entry are separate records, joined by “and”; a condition that tells them apart may be missing. Identical values can stand only once.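 Cells were grown in 96-well plates and exposed to each compound for 48 hours at five concentrations; endpoints were interpolated linearly between bracketing concentrations, or set to the highest concentration if not reached. GI50: concentration for 50% inhibition of growth. TGI: total growth inhibition.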

In the case of `O=c1cccc(C#CC#C[C@@H]2O[C@H]2CO)o1`, the GI50 with DU-145 prostate is 2420 nM; in the test on HS 578T breast, 5180 nM; in the test on HT29 colon, 429 nM; with MDA-MB-435, 2120 nM; in the test on NCI/ADR-RES ovarian, 1240 nM; in the test on OVCAR-8 ovarian it was 1030 nM. In addition, the GI50 in the test on SN12C renal is 465 nM; in the test on UACC-257 melanoma it was 2.17 µM; in the test on UO-31 renal it was 1.06 µM. Moreover, the total growth inhibition concentration (TGI) in the test on DU-145 prostate is 5.97 µM; in the test with HS 578T breast it was 24.5 µM; with HT29 colon, 2.53 µM; with MDA-MB-435, 4.56 µM; with NCI/ADR-RES ovarian, 4.53 µM; in the test with OVCAR-8 ovarian, 3.12 µM. Moreover, the concentration for total growth inhibition (TGI) in the test with SN12C renal was 0.915 µM; in the test on UACC-257 melanoma it was 4.52 µM; in the test on UO-31 renal it was 2.88 µM.
With `CNc1nc(N)nc(Nc2ccc(I)cc2)c1N=O`, the TGI in the test with DU-145 prostate, in the test on HS 578T breast, in the test with HT29 colon, with MDA-MB-435, in the test on NCI/ADR-RES ovarian and in the test on OVCAR-8 ovarian was greater than 100 µM in each case. Moreover, the TGI in the test on SN12C renal, in the test with UACC-257 melanoma and in the test with UO-31 renal was greater than 100 µM each time.
Take `Cc1nc2c(N)ncnc2o1`: the TGI in the test with HT29 colon, with OVCAR-4 ovarian, in the test with OVCAR-8 ovarian, with SN12C renal, with UACC-257 melanoma and with UO-31 renal was greater than 100 µM in each case.
Turning to `CCCCNCCCNCCCNC(=O)c1csc(-c2csc(CCNC(=O)C(NC(=O)C(C)C(O)C(C)NC(=O)C(NC(=O)c3nc(C(CC(N)=O)NCC(N)C(N)=O)nc(N)c3C)C(OC3OC(CO)C(O)C(O)C3OC3OC(CO)C(O)C(OC(N)=O)C3O)c3cnc[nH]3)C(C)O)n2)n1` (stereo not drawn), the TGI in the test with DU-145 prostate was 50 µM; with HS 578T breast, 50 µM; in the test with HT29 colon it was 50 µM and > 100 µM; with MDA-MB-435, 50 µM; in the test with OVCAR-8 ovarian, 12.1 µM and 40.4 µM; with SN12C renal it was 50 µM and 8.53 µM. In addition, in the test with UO-31 renal, the TGI is 15.8 µM and 3.81 µM. For the same compound, the GI50 in the test with HT29 colon was 1730 nM; in the test on OVCAR-4 ovarian, 0.459 µM; in the test on OVCAR-8 ovarian, 908 nM; in the test on SN12C renal, 1130 nM; in the test on UACC-257 melanoma, 0.106 µM.
Regarding `CCOc1ccc(NC(=O)CC2SC(=Nc3ccc(C)cc3C)NC2=O)cc1` (stereo not drawn), the TGI in the test on HT29 colon, with OVCAR-4 ovarian, with OVCAR-8 ovarian, in the test on SN12C renal, in the test on UACC-257 melanoma and with UO-31 renal was greater than 100 µM in each case.
Take `Nc1c(C(=O)Nc2ccccn2)sc2nc3c(cc12)C(=O)CCC3`: the GI50 with DU-145 prostate was 1980 nM; in the test with HS 578T breast it was 804 nM; with HT29 colon, 470 nM; in the test on NCI/ADR-RES ovarian, 929 nM; in the test on OVCAR-4 ovarian, 6.26 µM; with OVCAR-8 ovarian it was 6520 nM. Moreover, the GI50 with SN12C renal is 3360 nM; in the test on UACC-257 melanoma, 69.8 µM; in the test on UO-31 renal, 9.45 µM. For the same compound, the TGI in the test on DU-145 prostate is greater than 100 µM; in the test on HS 578T breast, 93.7 µM; in the test on HT29 colon, greater than 100 µM; in the test on NCI/ADR-RES ovarian, greater than 100 µM; with OVCAR-4 ovarian it was greater than 100 µM; with OVCAR-8 ovarian, greater than 100 µM. Moreover, the TGI in the test with SN12C renal, in the test on UACC-257 melanoma and in the test on UO-31 renal was greater than 100 µM each time.
`CN(C)CCNC(=O)Cc1ccccc1Nc1c(Cl)cccc1Cl`: the TGI in the test with HT29 colon was 23.5 µM; in the test with OVCAR-4 ovarian it was 50.6 µM; with OVCAR-8 ovarian, 37.1 µM; in the test with SN12C renal, 31.4 µM; with UACC-257 melanoma, 29.1 µM; in the test with UO-31 renal it was 25.6 µM.
With `COc1cc(C[P+](c2ccccc2)(c2ccccc2)c2ccccc2)cc(OC)c1OC`, the TGI with HT29 colon, in the test with OVCAR-4 ovarian, in the test with OVCAR-8 ovarian, in the test on SN12C renal, in the test on UACC-257 melanoma and with UO-31 renal was greater than 100 µM in each case.
On to `O=C1C=C(Nc2ccc(Cl)cc2C(=O)c2ccccc2)c2ccccc2C1=O`, for which the TGI in the test on HT29 colon, in the test on OVCAR-4 ovarian, in the test with OVCAR-8 ovarian, with SN12C renal, in the test with UACC-257 melanoma and in the test with UO-31 renal was greater than 100 µM throughout.
As to `COC(=N)c1csc(C2OC(CO)C(O)C2O)n1` (stereo not drawn), the TGI in the test with HT29 colon, with OVCAR-4 ovarian, with OVCAR-8 ovarian, with SN12C renal, with UACC-257 melanoma and with UO-31 renal was greater than 100 µM each time.
On to `CCOC(=O)Nc1c(C)nc2ccccn12`, for which the GI50 in the test with DU-145 prostate was greater than 100000 nM; in the test on HS 578T breast it was greater than 100000 nM; in the test on HT29 colon, greater than 100000 nM; in the test on MDA-MB-435, greater than 100000 nM; with OVCAR-4 ovarian it was greater than 100 µM; with OVCAR-8 ovarian, greater than 100000 nM. In addition, the GI50 in the test on SN12C renal is greater than 100000 nM; in the test with UACC-257 melanoma, greater than 100 µM; with UO-31 renal, greater than 100 µM. The TGI with DU-145 prostate, with HS 578T breast, in the test on HT29 colon, in the test with MDA-MB-435, in the test with OVCAR-4 ovarian and with OVCAR-8 ovarian was greater than 100 µM each time. In addition, the TGI in the test with SN12C renal, with UACC-257 melanoma and in the test on UO-31 renal was greater than 100 µM each time.
Consider `Cc1cc2c(cc1C)[n+](=O)cc(C(=O)C/C(=N/NC(=S)NN)C(=O)Nc1cccc(C(F)(F)F)c1)n2[O-]`, for which the TGI with HT29 colon, with OVCAR-4 ovarian, with OVCAR-8 ovarian, in the test on SN12C renal, in the test with UACC-257 melanoma and in the test with UO-31 renal was greater than 100 µM in each case.
As to `COC(=O)c1c2c(c(C)[n+]([O-])c1C)C(=O)C(NCc1ccc(Br)cc1)=CC2=O`, the GI50 was 2640 nM in the test on HS 578T breast; 1550 nM with MDA-MB-435; 1970 nM with NCI/ADR-RES ovarian; 0.704 µM with OVCAR-4 ovarian; 1830 nM in the test with OVCAR-8 ovarian; 1660 nM in the test with SN12C renal. For the same compound, the TGI with HS 578T breast was found to be 9.94 µM; in the test on MDA-MB-435 it was 2.96 µM; with NCI/ADR-RES ovarian, 7.03 µM; in the test on OVCAR-4 ovarian, 2 µM; in the test on OVCAR-8 ovarian, 7.19 µM; in the test with SN12C renal, 4.09 µM.
With `O=C(c1ccc([N+](=O)[O-])cc1[N+](=O)[O-])N(/N=C/C=C/c1ccccc1)c1nnc(-c2ccccc2)c(-c2ccccc2)n1`, the TGI was greater than 100 µM in the test with HT29 colon; 76.6 µM with OVCAR-4 ovarian; 67.8 µM with OVCAR-8 ovarian; greater than 100 µM in the test on SN12C renal; greater than 100 µM in the test on UACC-257 melanoma; 50.6 µM in the test with UO-31 renal.
Regarding `NC(N)=Nc1nc2ccccc2o1`, the GI50 with DU-145 prostate is greater than 100000 nM; with HT29 colon, greater than 100000 nM; with MDA-MB-435 it was greater than 100000 nM; in the test on NCI/ADR-RES ovarian it was greater than 100000 nM; in the test with OVCAR-4 ovarian, greater than 100 µM; in the test on OVCAR-8 ovarian, 49200 nM. The GI50 is greater than 100000 nM in the test with SN12C renal, 21.2 µM in the test with UACC-257 melanoma and 79.4 µM with UO-31 renal. Moreover, the TGI with DU-145 prostate, with HT29 colon, in the test with MDA-MB-435, in the test with NCI/ADR-RES ovarian, in the test with OVCAR-4 ovarian and in the test on OVCAR-8 ovarian was greater than 100 µM in each case. Also, the TGI in the test on SN12C renal, in the test with UACC-257 melanoma and in the test on UO-31 renal was greater than 100 µM throughout.
In the case of `Oc1oc(C(=C2N=c3ccccc3=N2)c2ccc(Cl)cc2)c(O)c1-c1ccc(Cl)cc1`, the TGI in the test with HT29 colon was 10.7 µM; in the test on OVCAR-4 ovarian, greater than 100 µM; in the test on OVCAR-8 ovarian, greater than 100 µM; with SN12C renal, greater than 100 µM; in the test on UACC-257 melanoma it was 6.45 µM; in the test on UO-31 renal, 8.08 µM.
As for `CC1=C(C(=O)Nc2ccccc2)C(c2ccc(Cl)c(Cl)c2)C(C(=O)Nc2ccccc2)=C(C)N1`, the TGI in the test with HT29 colon was 24.6 µM; in the test with OVCAR-4 ovarian, 27.7 µM; with OVCAR-8 ovarian it was 27.9 µM; in the test on SN12C renal, 28.5 µM; in the test on UACC-257 melanoma it was 26.5 µM; in the test with UO-31 renal it was 26 µM.
With `CC(C)C1CN(C(=O)OCc2ccccc2)C2N1C(=O)C2(C)OCc1ccccc1` (stereo not drawn), the TGI was greater than 100 µM in the test with HT29 colon; greater than 100 µM in the test with OVCAR-4 ovarian; greater than 100 µM with OVCAR-8 ovarian; greater than 100 µM with SN12C renal; 96.9 µM in the test with UACC-257 melanoma; 68.8 µM with UO-31 renal.
In the case of `CCOC(=O)Cc1csc(Nc2ccccc2[N+](=O)[O-])n1`, the TGI in the test with HT29 colon, in the test with OVCAR-4 ovarian, with OVCAR-8 ovarian, in the test with SN12C renal, in the test with UACC-257 melanoma and in the test with UO-31 renal was greater than 100 µM in each case.
For the compound `CC12c3ccccc3C(OC=O)(c3ccccc31)C1(C)c3ccccc3C2(OC=O)c2ccccc21`, the total growth inhibition concentration (TGI) in the test on HT29 colon, in the test on OVCAR-4 ovarian, in the test on OVCAR-8 ovarian, in the test with SN12C renal, in the test with UACC-257 melanoma and in the test on UO-31 renal was greater than 100 µM in each case.

Source of the values: PubChem BioAssay (NCI).
